Key:
Format in all cases: in vivo
[1] = tested on: foxtail, giant (giant foxtail, Setaria faberi); assay: Test A postemergence application, visual injury rating 0-100; conditions: 10 days, 0 is no effect, 100 is complete control
Outline: (§1)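 Grow plants in loam soil blended with sand. Apply formulated compound (non-phytotoxic solvent, surfactant) as a directed soil spray before emergence, or to plants at the one- to two-leaf stage after emergence. Hold in greenhouse 10 days, then rate injury visually versus untreated controls on a 0-100 scale.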

[2] = tested on: ryegrass, Italian (italian ryegrass, Lolium multiflorum); assay: as above; conditions: Postemergence, 10 days, 0 is no effect, 100 is complete control
Outline: as §1

[3] = tested on: galium (catchweed bedstraw, Galium aparine); assay: as above; conditions: Postemergence, 10 days, 0 is no effect, 100 is complete control
Outline: as §1

[4] = tested on: kochia (Bassia scoparia); assay: as above; conditions: Postemergence, 10 days, 0 is no effect, 100 is complete control
Outline: as §1

[5] = tested on: wheat (Triticum aestivum); assay: as above; conditions: Postemergence, 10 days, 0 is no effect, 100 is complete control
Outline: as §1

[6] = tested on: oat, wild (wild oat, Avena fatua); assay: as above; conditions: Postemergence, 10 days, 0 is no effect, 100 is complete control
Outline: as §1

[7] = tested on: corn (Zea mays); assay: as above; conditions: Postemergence, 10 days, 0 is no effect, 100 is complete control
Outline: as §1

[8] = tested on: blackgrass (Alopecurus myosuroides); assay: as above; conditions: Postemergence, 10 days, 0 is no effect, 100 is complete control
Outline: as §1

[9] = tested on: ragweed (common ragweed, Ambrosia artemisiifolia); assay: as above; conditions: Postemergence, 10 days, 0 is no effect, 100 is complete control
Outline: as §1

[10] = tested on: barnyardgrass (Echinochloa crus-galli); assay: as above; conditions: Postemergence, 10 days, 0 is no effect, 100 is complete control
Outline: as §1

[11] = tested on: palmer (palmer amaranth, palmer pigweed, Amaranthus palmeri); assay: as above; conditions: Postemergence, 10 days, 0 is no effect, 100 is complete control
Outline: as §1

[12] = tested on: horseweed (Erigeron canadensis); assay: as above; conditions: Postemergence, 10 days, 0 is no effect, 100 is complete control
Outline: as §1

[13] = tested on: soybean (Glycine max); assay: as above; conditions: Postemergence, 10 days, 0 is no effect, 100 is complete control
Outline: as §1

[14] = tested on: foxtail, giant (giant foxtail, Setaria faberi); assay: Test A preemergence soil spray, visual injury rating 0-100; conditions: 10 days, 0 = no effect, 100 = complete control
Outline: as §1

[15] = tested on: ryegrass, Italian (italian ryegrass, Lolium multiflorum); assay: as above; conditions: 10 days, 0 = no effect, 100 = complete control
Outline: as §1

[16] = tested on: kochia (Bassia scoparia); assay: as above; conditions: 10 days, 0 = no effect, 100 = complete control
Outline: as §1

[17] = tested on: wheat (Triticum aestivum); assay: as above; conditions: 10 days, 0 = no effect, 100 = complete control
Outline: as §1

[18] = tested on: oat, wild (wild oat, Avena fatua); assay: as above; conditions: 10 days, 0 = no effect, 100 = complete control
Outline: as §1

[19] = tested on: corn (Zea mays); assay: as above; conditions: 10 days, 0 = no effect, 100 = complete control
Outline: as §1

[20] = tested on: blackgrass (Alopecurus myosuroides); assay: as above; conditions: 10 days, 0 = no effect, 100 = complete control
Outline: as §1

[21] = tested on: ragweed (common ragweed, Ambrosia artemisiifolia); assay: as above; conditions: 10 days, 0 = no effect, 100 = complete control
Outline: as §1

[22] = tested on: barnyardgrass (Echinochloa crus-galli); assay: as above; conditions: 10 days, 0 = no effect, 100 = complete control
Outline: as §1

[23] = tested on: palmer (palmer amaranth, palmer pigweed, Amaranthus palmeri); assay: as above; conditions: 10 days, 0 = no effect, 100 = complete control
Outline: as §1

[24] = tested on: soybean (Glycine max); assay: as above; conditions: 10 days, 0 = no effect, 100 = complete control
Outline: as §1

[25] = tested on: barnyardgrass (Echinochloa crusgalli); assay: Test B flooded paddy test, visual plant response rating 0-100; conditions: 250 g ai/ha, Flood, applied to paddy water, evaluated after 13 days
Outline: (§2)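 Visual evaluation after 13 days. Water-applied treatment, 3 cm flood depth held constant, plants at 2-leaf stage at treatment.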

[26] = tested on: ducksalad (Heteranthera limosa); assay: as above; conditions: 250 g ai/ha, Flood, applied to paddy water, evaluated after 13 days
Outline: as §2

[27] = tested on: rice (Oryza sativa); assay: as above; conditions: 250 g ai/ha, Flood, applied to paddy water, evaluated after 13 days
Outline: as §2

[28] = tested on: sedge, umbrella (small-flower umbrella sedge, Cyperus difformis); assay: as above; conditions: 250 g ai/ha, Flood, applied to paddy water, evaluated after 13 days
Outline: as §2

CC1(C(=O)N[C@H]2C=C[C@@H](C(=O)O)C2)CN(c2cc(F)cc(F)c2)C(=O)O1 (stereo partly drawn) [Compound 51, (1S,4R)-4-[[[3-(3,5-Difluorophenyl)-5-methyl-2-oxo-5-oxazolidinyl]carbonyl]amino]-2-cyclopentene-1-carboxylic acid]
Foxtail, Giant plant response rating (0 to 100 scale) ([1]; 125 g ai/ha): 90
Foxtail, Giant plant response rating (0 to 100 scale) ([1]; 500 g ai/ha): 90
Ryegrass, Italian plant response rating (0 to 100 scale) ([2]; 125 g ai/ha): 70
Ryegrass, Italian plant response rating (0 to 100 scale) ([2]; 500 g ai/ha): 70
Galium plant response rating (0 to 100 scale) ([3]; 125 g ai/ha): 70
Galium plant response rating (0 to 100 scale) ([3]; 500 g ai/ha): 70
Kochia plant response rating (0 to 100 scale) ([4]; 125 g ai/ha): 80
Kochia plant response rating (0 to 100 scale) ([4]; 500 g ai/ha): 80
Wheat plant response rating (0 to 100 scale) ([5]; 125 g ai/ha): 90
Wheat plant response rating (0 to 100 scale) ([5]; 500 g ai/ha): 90
Oat, Wild plant response rating (0 to 100 scale) ([6]; 125 g ai/ha): 90
Oat, Wild plant response rating (0 to 100 scale) ([6]; 500 g ai/ha): 90
Corn plant response rating (0 to 100 scale) ([7]; 125 g ai/ha): 90
Corn plant response rating (0 to 100 scale) ([7]; 500 g ai/ha): 90
Blackgrass plant response rating (0 to 100 scale) ([8]; 125 g ai/ha): 90
Blackgrass plant response rating (0 to 100 scale) ([8]; 500 g ai/ha): 100
Ragweed plant response rating (0 to 100 scale) ([9]; 125 g ai/ha): 60
Ragweed plant response rating (0 to 100 scale) ([9]; 500 g ai/ha): 70
Barnyardgrass plant response rating (0 to 100 scale) ([10]; 125 g ai/ha): 100
Barnyardgrass plant response rating (0 to 100 scale) ([10]; 500 g ai/ha): 100
Amaranth, Palmer / Pigweed, Palmer plant response rating (0 to 100 scale) ([11]; 125 g ai/ha): 90
Amaranth, Palmer / Pigweed, Palmer plant response rating (0 to 100 scale) ([11]; 500 g ai/ha): 90
Horseweed plant response rating (0 to 100 scale) ([12]; 125 g ai/ha): 80
Horseweed plant response rating (0 to 100 scale) ([12]; 500 g ai/ha): 100
Soybean plant response rating (0 to 100 scale) ([13]; 125 g ai/ha): 70
Soybean plant response rating (0 to 100 scale) ([13]; 500 g ai/ha): 100
Foxtail, Giant plant response rating (0 to 100 scale) ([14]; 125 g ai/ha): 90
Foxtail, Giant plant response rating (0 to 100 scale) ([14]; 500 g ai/ha): 100
Ryegrass, Italian plant response rating (0 to 100 scale) ([15]; 125 g ai/ha): 90
Ryegrass, Italian plant response rating (0 to 100 scale) ([15]; 500 g ai/ha): 100
Kochia plant response rating (0 to 100 scale) ([16]; 125 g ai/ha): 90
Kochia plant response rating (0 to 100 scale) ([16]; 500 g ai/ha): 100
Wheat plant response rating (0 to 100 scale) ([17]; 125 g ai/ha): 100
Wheat plant response rating (0 to 100 scale) ([17]; 500 g ai/ha): 100
Oat, Wild plant response rating (0 to 100 scale) ([18]; 125 g ai/ha): 90
Oat, Wild plant response rating (0 to 100 scale) ([18]; 500 g ai/ha): 90
Corn plant response rating (0 to 100 scale) ([19]; 125 g ai/ha): 90
Corn plant response rating (0 to 100 scale) ([19]; 500 g ai/ha): 90
Blackgrass plant response rating (0 to 100 scale) ([20]; 125 g ai/ha): 80
Blackgrass plant response rating (0 to 100 scale) ([20]; 500 g ai/ha): 90
Ragweed plant response rating (0 to 100 scale) ([21]; 125 g ai/ha): 70
Ragweed plant response rating (0 to 100 scale) ([21]; 500 g ai/ha): 80
Barnyardgrass plant response rating (0 to 100 scale) ([22]; 125 g ai/ha): 100
Barnyardgrass plant response rating (0 to 100 scale) ([22]; 500 g ai/ha): 100
Amaranth, Palmer plant response rating (0 to 100 scale) ([23]; 125 g ai/ha): 90
Amaranth, Palmer plant response rating (0 to 100 scale) ([23]; 500 g ai/ha): 100
Soybean plant response rating (0 to 100 scale) ([24]; 125 g ai/ha): 70
Soybean plant response rating (0 to 100 scale) ([24]; 500 g ai/ha): 100
Plant response rating, Barnyardgrass (0 to 100 scale, 0 is no effect and 100 is complete control) [25]: 75
Plant response rating, Ducksalad (0 to 100 scale, 0 is no effect and 100 is complete control) [26]: 60
Plant response rating, Rice (0 to 100 scale, 0 is no effect and 100 is complete control) [27]: 60
Plant response rating, Sedge, Umbrella (0 to 100 scale, 0 is no effect and 100 is complete control) [28]: 60

— patent US20260285850A1, “SUBSTITUTED OXAZOLIDINONES AND IMIDAZOLINONES AS HERBICIDES” (FMC CORPORATION, priority 2023, published 2026)
